Data set [1] relates to rat. To be noted: cited from earlier work.
The conditions of data set [2]: cited from earlier work.
Data set [3] deals with animal's tissue. To be noted: solvent alone or containing dissolved PEPU polymer; compared to THF.
For data set [4] the following is noted: TWA; cited from earlier work.
The conditions of data set [5]: published literature; cited from earlier work.

With `CC1CCCO1` (stereo not shown) [2-MeOX, 2-methyloxolane], in data set [1] (rat model, reported for both skin contact and inhalation), the LD-50 entry was “approximately 6 g/kg”. For the same compound, the “amount of solvent that can dissolve in water” value in data set [2] is “approximately 14 % by weight”. Further, the “amount of water that can dissolve in the solvent” value in data set [2] (water in solvent) is listed as 4%. The “penetration into an animal's tissue after applying the solvent onto the skin” value in data set [3] is “much less 2-MeOX compared to THF solvent can penetrate”.

Regarding `C1CCOC1` [THF, tetrahydrofuran], the “LD-50 (rats)” value in data set [1] (rats) is recorded as 890 mg/kg. Further, the “OSHA Permissible Exposure Limit and NIOSH Recommended Exposure limit” value in data set [4] is listed as 200 ppm. In addition, in data set [5], the carcinogenicity / teratogenicity result is listed as “not considered a carcinogen or a teratogen”, the genotoxicity entry is reported as “nor is it genotoxic” and the skin irritation entry was “skin irritant”. Besides, the “amount of solvent that can dissolve in water” value in data set [2] is recorded as “miscible, in all proportions”.

Values taken from US20080175889A1, “METHOD AND COMPOSITION FOR COATING WOUNDS AND PROTECTING SKIN USING A POLYETHER POLYURETHANE SOLUTION” (priority 2007, published 2008).
